Test results taken from EP0908457B1, “3-(1,2-benzisothiazol- and isoxazol-5-Y1)-2,4(1H,3H)-pyrimidinedione or thione and 3-(1,2-benzisothiazol- and isoxazol-5-y1)-4(3H)-pyrimidinone or thione herbicidal agents” (BASF AKTIENGESELLSCHAFT, priority 1997, dated 1999).

How the values were obtained:
[1] = system: Oryza sativa, (L.) Tebonnet; assay: Rice tolerance to post-transplant applications under flooded paddy conditions (Example 187), ORYSAT (Rice, Tebonnet); conditions: rated three to four weeks after treatment; for herbicidal effect rating ORYSAT: meaning of each grade not given here
[2] = system: Echinochloa oryzoides (Ard.) Fritsch.; assay: Preemergence weed control under flooded paddy conditions, ECHORC (Watergrass (Calif.)); type: in vivo; conditions: preemergence, flooded paddy, rated three to four weeks after treatment; note: meaning of each grade not given here
[3] = system: Echinochloa oryzoides (Ard.) Fritsch.; assay: Postemergence weed control under flooded paddy conditions, ECHORC (Watergrass (Calif.)); type: in vivo; conditions: rated three to four weeks after treatment
Sagittaria pygmaea, L. [4] = assay: Postemergence weed control under flooded paddy conditions, SAGPY (Arrowhead (Pygmaea)); type: in vivo; conditions: rated three to four weeks after treatment
[5] = system: Cyperus serotinus, Rottb.; assay: Postemergence weed control under flooded paddy conditions, CYPSE (Flatsedge); type: in vivo; conditions: rated three to four weeks after treatment
[6] = system: Monochoria vaginalis, Presl.; assay: Preemergence weed control under flooded paddy conditions, MOOVA (Monochoria); type: in vivo; conditions: preemergence, flooded paddy, rated three to four weeks after treatment; note: meaning of each grade not given here
[7] = system: Monochoria vaginalis, Presl.; assay: Postemergence weed control under flooded paddy conditions, MOOVA (Monochoria); type: in vivo; conditions: rated three to four weeks after treatment
Cyperus iria [8] = assay: Preemergence weed control under flooded paddy conditions, CYPIR (Rice Flatsedge); type: in vivo; conditions: preemergence, flooded paddy, rated three to four weeks after treatment; note: meaning of each grade not given here
Cyperus iria [9] = assay: Postemergence weed control under flooded paddy conditions, CYPIR (Rice Flatsedge); type: in vivo; conditions: rated three to four weeks after treatment
[10] = system: Cyperus serotinus, Rottb.; assay: Preemergence weed control under flooded paddy conditions, CYPSE (Flatsedge); type: in vivo; conditions: preemergence, rated three to four weeks after treatment; note: meaning of each grade not given here
Sagittaria pygmaea, L. [11] = assay: Preemergence weed control under flooded paddy conditions, SAGPY (Arrowhead (Pygmaea)); type: in vivo; conditions: preemergence, flooded paddy, rated three to four weeks after treatment; note: meaning of each grade not given here
[12] = system: Oryza sativa, (L.) Tebonnet; assay: Rice tolerance to post-transplant applications under flooded paddy conditions (Example 188), ORYSAT (Rice, Tebonnet); conditions: rated three to four weeks after treatment

## COc1cc2c(cc1-c1nsc3ccc(-n4c(=O)cc(C(F)(F)F)n(C)c4=O)cc13)CCC2 [Example 380, 2,4(1H,3H)-Pyrimidinedione, 3-[3-(6-methoxy-5-indanyl)-1,2-benzisothiazol-5-yl]-1-methyl-6-(trifluoromethyl)-]
[1]; Rate 0.0320 kg/ha
  herbicidal effect rating ORYSAT: 2.5
[1]; Rate 0.0620 kg/ha
  herbicidal effect rating ORYSAT: 4.0
[1]; Rate 0.1250 kg/ha
  herbicidal effect rating ORYSAT: 5.0
[1]; Rate 0.2500 kg/ha
  herbicidal effect rating ORYSAT: 6.5
[2]; Rate 0.0320 kg/ha
  herbicidal effect rating, ECHORC: 9.0
[2]; Rate 0.0620 kg/ha
  herbicidal effect rating, ECHORC: 9.0
[2]; Rate 0.1250 kg/ha
  herbicidal effect rating, ECHORC: 9.0
[2]; Rate 0.2500 kg/ha
  herbicidal effect rating, ECHORC: 9.0
[3]; Rate 0.0320 kg/ha
  herbicidal effect rating, ECHORC: 7.0
[3]; Rate 0.0620 kg/ha
  herbicidal effect rating, ECHORC: 8.0
[3]; Rate 0.1250 kg/ha
  herbicidal effect rating, ECHORC: 9.0
[3]; Rate 0.2500 kg/ha
  herbicidal effect rating, ECHORC: 9.0
Sagittaria pygmaea, L. [4]; Rate 0.0320 kg/ha
  herbicidal effect rating, SAGPY: 0.0
Sagittaria pygmaea, L. [4]; Rate 0.0620 kg/ha
  herbicidal effect rating, SAGPY: 0.0
Sagittaria pygmaea, L. [4]; Rate 0.1250 kg/ha
  herbicidal effect rating, SAGPY: 2.0
Sagittaria pygmaea, L. [4]; Rate 0.2500 kg/ha
  herbicidal effect rating, SAGPY: 8.0
[5]; Rate 0.0320 kg/ha
  herbicidal effect rating, CYPSE: 0.0
[5]; Rate 0.0620 kg/ha
  herbicidal effect rating, CYPSE: 2.0
[5]; Rate 0.1250 kg/ha
  herbicidal effect rating, CYPSE: 2.0
[5]; Rate 0.2500 kg/ha
  herbicidal effect rating, CYPSE: 8.0
[6]; Rate 0.0320 kg/ha
  herbicidal effect rating, MOOVA: 9.0
[6]; Rate 0.0620 kg/ha
  herbicidal effect rating, MOOVA: 9.0
[6]; Rate 0.1250 kg/ha
  herbicidal effect rating, MOOVA: 9.0
[6]; Rate 0.2500 kg/ha
  herbicidal effect rating, MOOVA: 9.0
[7]; Rate 0.0320 kg/ha
  herbicidal effect rating, MOOVA: 9.0
[7]; Rate 0.0620 kg/ha
  herbicidal effect rating, MOOVA: 9.0
[7]; Rate 0.1250 kg/ha
  herbicidal effect rating, MOOVA: 9.0
[7]; Rate 0.2500 kg/ha
  herbicidal effect rating, MOOVA: 9.0
Cyperus iria [8]; Rate 0.0320 kg/ha
  herbicidal effect rating, CYPIR: 9.0
Cyperus iria [8]; Rate 0.0620 kg/ha
  herbicidal effect rating, CYPIR: 9.0
Cyperus iria [8]; Rate 0.1250 kg/ha
  herbicidal effect rating, CYPIR: 9.0
Cyperus iria [8]; Rate 0.2500 kg/ha
  herbicidal effect rating, CYPIR: 9.0
Cyperus iria [9]; Rate 0.0320 kg/ha
  herbicidal effect rating, CYPIR: 9.0
Cyperus iria [9]; Rate 0.0620 kg/ha
  herbicidal effect rating, CYPIR: 9.0
Cyperus iria [9]; Rate 0.1250 kg/ha
  herbicidal effect rating, CYPIR: 9.0
Cyperus iria [9]; Rate 0.2500 kg/ha
  herbicidal effect rating, CYPIR: 9.0
[10]; Rate 0.0320 kg/ha
  herbicidal effect rating, CYPSE: 3.5
[10]; Rate 0.0620 kg/ha
  herbicidal effect rating, CYPSE: 3.5
[10]; Rate 0.1250 kg/ha
  herbicidal effect rating, CYPSE: 8.0
[10]; Rate 0.2500 kg/ha
  herbicidal effect rating, CYPSE: 8.0
Sagittaria pygmaea, L. [11]; Rate 0.0320 kg/ha
  herbicidal effect rating, SAGPY: 0.0
Sagittaria pygmaea, L. [11]; Rate 0.0620 kg/ha
  herbicidal effect rating, SAGPY: 0.0
Sagittaria pygmaea, L. [11]; Rate 0.1250 kg/ha
  herbicidal effect rating, SAGPY: 4.0
Sagittaria pygmaea, L. [11]; Rate 0.2500 kg/ha
  herbicidal effect rating, SAGPY: 9.0
[12]; Rate 0.0320 kg/ha
  herbicidal effect rating, ORYSAT (rice tolerance): 3.0
[12]; Rate 0.0620 kg/ha
  herbicidal effect rating, ORYSAT (rice tolerance): 7.0
[12]; Rate 0.1250 kg/ha
  herbicidal effect rating, ORYSAT (rice tolerance): 7.0
[12]; Rate 0.2500 kg/ha
  herbicidal effect rating, ORYSAT (rice tolerance): 7.0

## COc1cc(C)ccc1-c1nsc2ccc(-n3c(=O)cc(C(F)(F)F)n(C)c3=O)cc12 [Example 7, 3-[3-(2-Methoxy-p-tolyl)-1,2-benzisothiazol-5-yl]-1-methyl-6-(trifluoromethyl)-2,4(1H,3H)-pyrimidinedione]
[1]; 0.0313 kg/ha
  herbicidal effect rating, ORYSAT (rice tolerance): 6.0
[1]; 0.0625 kg/ha
  herbicidal effect rating, ORYSAT (rice tolerance): 8.0
[1]; 0.1250 kg/ha
  herbicidal effect rating, ORYSAT (rice tolerance): 7.0
[1]; 0.2500 kg/ha
  herbicidal effect rating, ORYSAT (rice tolerance): 7.0
[1]; 0.5000 kg/ha
  herbicidal effect rating, ORYSAT (rice tolerance): 9.0
[2]; 0.0313 kg/ha
  herbicidal effect rating, ECHORC: 9.0
[2]; 0.0625 kg/ha
  herbicidal effect rating, ECHORC: 9.0
[2]; 0.1250 kg/ha
  herbicidal effect rating, ECHORC: 9.0
[2]; 0.2500 kg/ha
  herbicidal effect rating, ECHORC: 9.0
[2]; 0.5000 kg/ha
  herbicidal effect rating, ECHORC: 9.0
[3]; Rate 0.0313 kg/ha
  herbicidal effect rating, ECHORC: 9.0
[3]; Rate 0.0625 kg/ha
  herbicidal effect rating, ECHORC: 9.0
[3]; Rate 0.1250 kg/ha
  herbicidal effect rating, ECHORC: 9.0
[3]; Rate 0.2500 kg/ha
  herbicidal effect rating, ECHORC: 9.0
[3]; Rate 0.5000 kg/ha
  herbicidal effect rating, ECHORC: 9.0
Sagittaria pygmaea, L. [4]; Rate 0.0313 kg/ha
  herbicidal effect rating, SAGPY: 0.0
Sagittaria pygmaea, L. [4]; Rate 0.0625 kg/ha
  herbicidal effect rating, SAGPY: 2.0
Sagittaria pygmaea, L. [4]; Rate 0.1250 kg/ha
  herbicidal effect rating, SAGPY: 4.0
Sagittaria pygmaea, L. [4]; Rate 0.2500 kg/ha
  herbicidal effect rating, SAGPY: 9.0
Sagittaria pygmaea, L. [4]; Rate 0.5000 kg/ha
  herbicidal effect rating, SAGPY: 9.0
[5]; Rate 0.0313 kg/ha
  herbicidal effect rating, CYPSE: 2.0
[5]; Rate 0.0625 kg/ha
  herbicidal effect rating, CYPSE: 6.0
[5]; Rate 0.1250 kg/ha
  herbicidal effect rating, CYPSE: 9.0
[5]; Rate 0.2500 kg/ha
  herbicidal effect rating, CYPSE: 9.0
[5]; Rate 0.5000 kg/ha
  herbicidal effect rating, CYPSE: 8.0
[6]; 0.0313 kg/ha
  herbicidal effect rating, MOOVA: 9.0
[6]; 0.0625 kg/ha
  herbicidal effect rating, MOOVA: 9.0
[6]; 0.1250 kg/ha
  herbicidal effect rating, MOOVA: 9.0
[6]; 0.2500 kg/ha
  herbicidal effect rating, MOOVA: 9.0
[6]; 0.5000 kg/ha
  herbicidal effect rating, MOOVA: 9.0
[7]; Rate 0.0313 kg/ha
  herbicidal effect rating, MOOVA: 9.0
[7]; Rate 0.0625 kg/ha
  herbicidal effect rating, MOOVA: 9.0
[7]; Rate 0.1250 kg/ha
  herbicidal effect rating, MOOVA: 9.0
[7]; Rate 0.2500 kg/ha
  herbicidal effect rating, MOOVA: 9.0
[7]; Rate 0.5000 kg/ha
  herbicidal effect rating, MOOVA: 9.0
Cyperus iria [8]; 0.0313 kg/ha
  herbicidal effect rating, CYPIR: 9.0
Cyperus iria [8]; 0.0625 kg/ha
  herbicidal effect rating, CYPIR: 9.0
Cyperus iria [8]; 0.1250 kg/ha
  herbicidal effect rating, CYPIR: 9.0
Cyperus iria [8]; 0.2500 kg/ha
  herbicidal effect rating, CYPIR: 9.0
Cyperus iria [8]; 0.5000 kg/ha
  herbicidal effect rating, CYPIR: 9.0
Cyperus iria [9]; Rate 0.0313 kg/ha
  herbicidal effect rating, CYPIR: 9.0
Cyperus iria [9]; Rate 0.0625 kg/ha
  herbicidal effect rating, CYPIR: 9.0
Cyperus iria [9]; Rate 0.1250 kg/ha
  herbicidal effect rating, CYPIR: 9.0
Cyperus iria [9]; Rate 0.2500 kg/ha
  herbicidal effect rating, CYPIR: 9.0
Cyperus iria [9]; Rate 0.5000 kg/ha
  herbicidal effect rating, CYPIR: 9.0
[10]; 0.0313 kg/ha
  herbicidal effect rating, CYPSE: 7.0
[10]; 0.0625 kg/ha
  herbicidal effect rating, CYPSE: 7.0
[10]; 0.1250 kg/ha
  herbicidal effect rating, CYPSE: 8.0
[10]; 0.2500 kg/ha
  herbicidal effect rating, CYPSE: 7.0
[10]; 0.5000 kg/ha
  herbicidal effect rating, CYPSE: 9.0
Sagittaria pygmaea, L. [11]; 0.0313 kg/ha
  herbicidal effect rating, SAGPY: 6.0
Sagittaria pygmaea, L. [11]; 0.0625 kg/ha
  herbicidal effect rating, SAGPY: 8.0
Sagittaria pygmaea, L. [11]; 0.1250 kg/ha
  herbicidal effect rating, SAGPY: 9.0
Sagittaria pygmaea, L. [11]; 0.2500 kg/ha
  herbicidal effect rating, SAGPY: 9.0
Sagittaria pygmaea, L. [11]; 0.5000 kg/ha
  herbicidal effect rating, SAGPY: 9.0
[12]; Rate 0.0313 kg/ha
  herbicidal effect rating, ORYSAT (rice tolerance): 7.0
[12]; Rate 0.0625 kg/ha
  herbicidal effect rating, ORYSAT (rice tolerance): 7.0
[12]; Rate 0.1250 kg/ha
  herbicidal effect rating, ORYSAT (rice tolerance): 7.0
[12]; Rate 0.2500 kg/ha
  herbicidal effect rating, ORYSAT (rice tolerance): 7.0
[12]; Rate 0.5000 kg/ha
  herbicidal effect rating, ORYSAT (rice tolerance): 8.0
